Calls of active or inactive are those of the source. The rule behind the calls is not given here.
Experiments:
[1] = test system: PC-3; experiment: Induction of apoptosis in human PC-3 cells assessed as necrotic cells at 0.5 uM by Annexin-V FITC staining based flow cytometry analysis (reference value: 0.059%); format: functional
[2] = biological target: T1, Vascular endothelial growth factor receptor 2 (Homo sapiens, UniProt P35968); experiment: Inhibition of VEGF-induced VEGFR2 signal pathway in HUVECs assessed as reduction in p-VEGFR2 level at 12.5 uM relative to control; format: cell-based; settings: HUVEC
[3] = biological target: Serine/threonine-protein kinase MAK (Homo sapiens, UniProt P20794); experiment: Inhibition of MAK (unknown origin)
[4] = test system: PC-3; experiment: Induction of cell cycle arrest in human PC-3 cells assessed as decrease in cyclin-B1 expression at 0.5 to 12.5 uM incubated for 48 hrs by Western blotting analysis; format: functional, cell-based; settings: dose 0.5-12.5 µM
[5] = biological target: STE20-like serine/threonine-protein kinase (Homo sapiens, UniProt Q9H2G2); experiment: Inhibition of SLK (unknown origin)
[6] = test system: PC-3M-1E8; experiment: Cytotoxicity against human PC-3M-1E8 cells assessed as inhibition of cell viability incubated for 48 hrs by MTT assay; format: functional, cell-based
[7] = biological target: Proto-oncogene tyrosine-protein kinase ROS (Homo sapiens, UniProt P08922); experiment: Inhibition of ROS1 (unknown origin)
[8] = test system: PC-3M; experiment: Cytotoxicity against human PC-3M cells assessed as inhibition of cell viability incubated for 48 hrs by MTT assay; format: functional, cell-based
[9] = biological target: Dual specificity protein kinase TTK (Homo sapiens, UniProt P33981); experiment: Inhibition of TTK (unknown origin)
[10] = test system: DU-145; experiment: Cytotoxicity against human DU-145 cells assessed as inhibition of cell viability incubated for 48 hrs by MTT assay; format: functional, cell-based
[11] = biological target: CDK6/cyclin D3 (Homo sapiens, UniProt Q00534); experiment: Inhibition of CDK6/Cyclin D3 (unknown origin); format: protein-complex assay
[12] = biological target: Atypical kinase COQ8A, mitochondrial (Homo sapiens, UniProt Q8NI60); experiment: Inhibition of ADCK3 (unknown origin)
[13] = test system: PC-3; experiment: Antitumor activity against human PC-3 cells xenografted in BALB/c nude mouse assessed as tumor disappearance at 10 mg/kg, ip administered every 4 days for 20 days; format: functional, organism-based; settings: time 20.0 day
[14] = biological target: Tyrosine-protein kinase HCK (Homo sapiens, UniProt P08631); experiment: Inhibition of HCK (unknown origin)
[15] = Toxicity in BALB/c mouse xenografted with human PC-3 cells assessed as change in kidney morphology at 5 to 10 mg/kg, ip administered every 4 days for 20 days by H and E staining based inverted microscopic assay; format: organism-based; settings: in vivo, 480 h, dose 5-10 mg/kg, time 20 day
[16] = biological target: RAF proto-oncogene serine/threonine-protein kinase (Homo sapiens, UniProt P04049); experiment: Inhibition of RAF1 (unknown origin)
[17] = test system: VCaP; experiment: Cytotoxicity against human VCaP cells assessed as inhibition of cell viability incubated for 48 hrs by MTT assay; format: functional, cell-based
[18] = test system: PC-3; experiment: Induction of apoptosis in human PC-3 cells assessed as necrotic cells at 12.5 uM by Annexin-V FITC staining based flow cytometry analysis (reference value: 0.059%); format: functional
[19] = biological target: T1, Vascular endothelial growth factor receptor 2; experiment: Inhibition of VEGFR2 (unknown origin)
[20] = test system: PC-3; experiment: Induction of apoptosis in human PC-3 cells assessed as viable cells at 0.5 uM by Annexin-V FITC staining based flow cytometry analysis (reference value: 96.8%); format: functional; settings: read-out: Activity
[21] = test system: PC-3; experiment: Induction of cell cycle arrest in human PC-3 cells assessed as increase in p-cdc2 expression at 0.5 to 12.5 uM incubated for 48 hrs by Western blotting analysis; format: functional, cell-based; settings: dose 0.5-12.5 µM
[22] = test system: PC-3; experiment: Induction of apoptosis in human PC-3 cells assessed as late apoptotic cells at 0.5 uM by Annexin-V FITC staining based flow cytometry analysis (reference value: 1.67%); format: functional
[23] = biological target: Mitogen-activated protein kinase 8 (Homo sapiens, UniProt P45983); experiment: Inhibition of JNK1 (unknown origin)
[24] = biological target: Atypical kinase COQ8B, mitochondrial (Homo sapiens, UniProt Q96D53); experiment: Inhibition of ADCK4 (unknown origin)
[25] = biological target: Focal adhesion kinase 1 (Homo sapiens, UniProt Q05397); experiment: Inhibition of FAK (unknown origin)
[26] = biological target: Cyclin-G-associated kinase (Homo sapiens, UniProt O14976); experiment: Inhibition of GAK (unknown origin)
[27] = test system: PC-3; experiment: Induction of apoptosis in human PC-3 cells assessed as viable cells at 2.5 uM by Annexin-V FITC staining based flow cytometry analysis (reference value: 96.8%); format: functional; settings: read-out: Activity
[28] = test system: PC-3; experiment: Induction of cell cycle arrest in human PC-3 cells assessed as G0/G1 phase cells at 0.5 uM by flow cytometry analysis (reference value: 94.76%); format: functional
[29] = test system: PC-3; experiment: Induction of apoptosis in human PC-3 cells assessed as early apoptotic cells at 12.5 uM by Annexin-V FITC staining based flow cytometry analysis (reference value: 1.51%); format: functional
[30] = biological target: Serine/threonine-protein kinase 38 (Homo sapiens, UniProt Q15208); experiment: Inhibition of NDR1 (unknown origin)
[31] = AUC in Sprague-Dawley rat at 1.5 mg/kg, po measured upto 24 hrs by LC-MS/MS analysis; format: ADME, organism-based; set-up: dose 1.5 mg/kg, time < 24 hrs, route po; settings: in vivo
[32] = test system: PC-3; experiment: Cytotoxicity against human PC-3 cells assessed as inhibition of cell viability incubated for 48 hrs by MTT assay; format: functional, cell-based; settings: PC-3, 48 h
[33] = Cmax in Sprague-Dawley rat at 1.5 mg/kg, po measured upto 24 hrs by LC-MS/MS analysis; format: ADME, organism-based; set-up: time < 24 hrs, dose 1.5 mg/kg, route po; settings: in vivo
[34] = biological target: Neuropilin-1 (Homo sapiens) (UniProt O14786); experiment: Inhibition of [125I]-VEGF-A165 binding to NRP1 (unknown origin) transfected in HUVECs at 12 uM incubated for 2 hrs by plate reader analysis relative to control; format: cell-based; settings: HUVEC
[35] = biological target: AP2-associated protein kinase 1 (Homo sapiens, UniProt Q2M2I8); experiment: Inhibition of AAK1 (unknown origin)
[36] = biological target: Tubulin (Homo sapiens) (UniProt P68371+Q9H4B7+P0DPH7+P68366+Q13509+Q71U36+P04350+Q3ZCM7+P07437+P68363+Q9BQE3+Q6PEY2+Q13885+Q9BVA1+Q9BUF5); experiment: Inhibition of tubulin polymerization in human PC-3 cells assessed as nucleus disappearance at 2.5 to 12.5 uM incubated for 48 hrs by immunofluorescence assay; format: cell-based; settings: dose 2.5-12.5 µM
[37] = test system: PC-3; experiment: Induction of apoptosis in human PC-3 cells assessed as late apoptotic cells at 12.5 uM by Annexin-V FITC staining based flow cytometry analysis (reference value: 1.67%); format: functional
[38] = test system: PC-3; experiment: Induction of apoptosis in human PC-3 cells assessed as increase in cleaved PARP expression at 0.5 to 12.5 uM incubated for 48 hrs by Western blotting analysis; format: functional, cell-based; settings: dose 0.5-12.5 µM
[39] = biological target: Epidermal growth factor receptor (Homo sapiens, UniProt P00533); experiment: Inhibition of EGFR (unknown origin)
[40] = test system: PC-3; experiment: Inhibition of colony formation in human PC-3 cells incubated for 10 days by crystal violet staining based assay; format: functional, cell-based; settings: dose 0.1-12.5 µM, time 10.0 day
[41] = biological target: Hepatocyte growth factor receptor (Homo sapiens, UniProt P08581); experiment: Inhibition of MET (unknown origin)

T1 sequence (P35968 whole entry): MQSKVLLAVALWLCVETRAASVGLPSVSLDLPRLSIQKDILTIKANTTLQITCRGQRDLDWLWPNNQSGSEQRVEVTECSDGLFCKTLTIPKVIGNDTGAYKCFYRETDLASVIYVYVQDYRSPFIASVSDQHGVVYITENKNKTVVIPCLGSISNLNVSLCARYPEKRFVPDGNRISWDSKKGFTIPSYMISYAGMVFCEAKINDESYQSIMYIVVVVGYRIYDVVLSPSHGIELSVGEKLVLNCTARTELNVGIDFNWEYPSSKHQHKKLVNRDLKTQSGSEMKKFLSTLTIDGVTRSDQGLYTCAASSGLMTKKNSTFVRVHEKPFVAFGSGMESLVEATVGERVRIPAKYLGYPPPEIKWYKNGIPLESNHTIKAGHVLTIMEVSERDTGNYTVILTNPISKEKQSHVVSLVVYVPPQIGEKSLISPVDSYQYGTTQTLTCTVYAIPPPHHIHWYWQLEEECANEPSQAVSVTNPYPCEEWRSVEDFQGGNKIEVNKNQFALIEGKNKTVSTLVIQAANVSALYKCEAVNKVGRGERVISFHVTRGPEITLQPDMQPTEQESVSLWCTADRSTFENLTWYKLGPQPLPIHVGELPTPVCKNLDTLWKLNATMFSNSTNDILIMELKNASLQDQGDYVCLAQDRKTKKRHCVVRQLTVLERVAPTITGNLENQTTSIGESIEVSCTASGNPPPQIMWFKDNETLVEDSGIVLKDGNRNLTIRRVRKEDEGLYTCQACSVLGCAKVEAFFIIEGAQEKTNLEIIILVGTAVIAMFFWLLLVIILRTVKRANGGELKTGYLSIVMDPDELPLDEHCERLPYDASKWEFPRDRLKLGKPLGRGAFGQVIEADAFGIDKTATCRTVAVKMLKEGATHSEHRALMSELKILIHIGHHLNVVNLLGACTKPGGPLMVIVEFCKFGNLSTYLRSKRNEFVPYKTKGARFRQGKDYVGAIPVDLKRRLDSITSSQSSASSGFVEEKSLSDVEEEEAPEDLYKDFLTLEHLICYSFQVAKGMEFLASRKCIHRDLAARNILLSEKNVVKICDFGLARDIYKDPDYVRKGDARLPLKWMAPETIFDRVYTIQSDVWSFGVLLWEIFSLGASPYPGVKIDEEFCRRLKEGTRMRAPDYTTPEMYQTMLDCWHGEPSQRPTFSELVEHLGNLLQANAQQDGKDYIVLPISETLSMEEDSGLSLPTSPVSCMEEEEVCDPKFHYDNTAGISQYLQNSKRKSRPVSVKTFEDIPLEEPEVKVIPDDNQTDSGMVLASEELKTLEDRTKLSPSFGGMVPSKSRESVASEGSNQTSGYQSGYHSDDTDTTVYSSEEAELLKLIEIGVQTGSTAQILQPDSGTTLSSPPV
Chain of Mitogen-activated protein kinase 8 (P45983 whole entry): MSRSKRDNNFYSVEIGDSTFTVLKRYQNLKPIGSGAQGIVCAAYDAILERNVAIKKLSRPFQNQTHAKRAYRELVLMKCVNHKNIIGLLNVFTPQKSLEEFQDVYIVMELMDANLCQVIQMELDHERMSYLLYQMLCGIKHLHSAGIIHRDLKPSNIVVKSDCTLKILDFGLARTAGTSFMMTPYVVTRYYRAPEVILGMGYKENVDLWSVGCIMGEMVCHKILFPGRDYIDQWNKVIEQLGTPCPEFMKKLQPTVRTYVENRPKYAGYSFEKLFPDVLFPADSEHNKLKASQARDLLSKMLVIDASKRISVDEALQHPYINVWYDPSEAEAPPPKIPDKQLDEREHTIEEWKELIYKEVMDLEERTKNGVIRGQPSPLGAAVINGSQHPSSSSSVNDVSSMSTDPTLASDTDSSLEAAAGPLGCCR
Chain of Proto-oncogene tyrosine-protein kinase ROS (P08922 whole entry): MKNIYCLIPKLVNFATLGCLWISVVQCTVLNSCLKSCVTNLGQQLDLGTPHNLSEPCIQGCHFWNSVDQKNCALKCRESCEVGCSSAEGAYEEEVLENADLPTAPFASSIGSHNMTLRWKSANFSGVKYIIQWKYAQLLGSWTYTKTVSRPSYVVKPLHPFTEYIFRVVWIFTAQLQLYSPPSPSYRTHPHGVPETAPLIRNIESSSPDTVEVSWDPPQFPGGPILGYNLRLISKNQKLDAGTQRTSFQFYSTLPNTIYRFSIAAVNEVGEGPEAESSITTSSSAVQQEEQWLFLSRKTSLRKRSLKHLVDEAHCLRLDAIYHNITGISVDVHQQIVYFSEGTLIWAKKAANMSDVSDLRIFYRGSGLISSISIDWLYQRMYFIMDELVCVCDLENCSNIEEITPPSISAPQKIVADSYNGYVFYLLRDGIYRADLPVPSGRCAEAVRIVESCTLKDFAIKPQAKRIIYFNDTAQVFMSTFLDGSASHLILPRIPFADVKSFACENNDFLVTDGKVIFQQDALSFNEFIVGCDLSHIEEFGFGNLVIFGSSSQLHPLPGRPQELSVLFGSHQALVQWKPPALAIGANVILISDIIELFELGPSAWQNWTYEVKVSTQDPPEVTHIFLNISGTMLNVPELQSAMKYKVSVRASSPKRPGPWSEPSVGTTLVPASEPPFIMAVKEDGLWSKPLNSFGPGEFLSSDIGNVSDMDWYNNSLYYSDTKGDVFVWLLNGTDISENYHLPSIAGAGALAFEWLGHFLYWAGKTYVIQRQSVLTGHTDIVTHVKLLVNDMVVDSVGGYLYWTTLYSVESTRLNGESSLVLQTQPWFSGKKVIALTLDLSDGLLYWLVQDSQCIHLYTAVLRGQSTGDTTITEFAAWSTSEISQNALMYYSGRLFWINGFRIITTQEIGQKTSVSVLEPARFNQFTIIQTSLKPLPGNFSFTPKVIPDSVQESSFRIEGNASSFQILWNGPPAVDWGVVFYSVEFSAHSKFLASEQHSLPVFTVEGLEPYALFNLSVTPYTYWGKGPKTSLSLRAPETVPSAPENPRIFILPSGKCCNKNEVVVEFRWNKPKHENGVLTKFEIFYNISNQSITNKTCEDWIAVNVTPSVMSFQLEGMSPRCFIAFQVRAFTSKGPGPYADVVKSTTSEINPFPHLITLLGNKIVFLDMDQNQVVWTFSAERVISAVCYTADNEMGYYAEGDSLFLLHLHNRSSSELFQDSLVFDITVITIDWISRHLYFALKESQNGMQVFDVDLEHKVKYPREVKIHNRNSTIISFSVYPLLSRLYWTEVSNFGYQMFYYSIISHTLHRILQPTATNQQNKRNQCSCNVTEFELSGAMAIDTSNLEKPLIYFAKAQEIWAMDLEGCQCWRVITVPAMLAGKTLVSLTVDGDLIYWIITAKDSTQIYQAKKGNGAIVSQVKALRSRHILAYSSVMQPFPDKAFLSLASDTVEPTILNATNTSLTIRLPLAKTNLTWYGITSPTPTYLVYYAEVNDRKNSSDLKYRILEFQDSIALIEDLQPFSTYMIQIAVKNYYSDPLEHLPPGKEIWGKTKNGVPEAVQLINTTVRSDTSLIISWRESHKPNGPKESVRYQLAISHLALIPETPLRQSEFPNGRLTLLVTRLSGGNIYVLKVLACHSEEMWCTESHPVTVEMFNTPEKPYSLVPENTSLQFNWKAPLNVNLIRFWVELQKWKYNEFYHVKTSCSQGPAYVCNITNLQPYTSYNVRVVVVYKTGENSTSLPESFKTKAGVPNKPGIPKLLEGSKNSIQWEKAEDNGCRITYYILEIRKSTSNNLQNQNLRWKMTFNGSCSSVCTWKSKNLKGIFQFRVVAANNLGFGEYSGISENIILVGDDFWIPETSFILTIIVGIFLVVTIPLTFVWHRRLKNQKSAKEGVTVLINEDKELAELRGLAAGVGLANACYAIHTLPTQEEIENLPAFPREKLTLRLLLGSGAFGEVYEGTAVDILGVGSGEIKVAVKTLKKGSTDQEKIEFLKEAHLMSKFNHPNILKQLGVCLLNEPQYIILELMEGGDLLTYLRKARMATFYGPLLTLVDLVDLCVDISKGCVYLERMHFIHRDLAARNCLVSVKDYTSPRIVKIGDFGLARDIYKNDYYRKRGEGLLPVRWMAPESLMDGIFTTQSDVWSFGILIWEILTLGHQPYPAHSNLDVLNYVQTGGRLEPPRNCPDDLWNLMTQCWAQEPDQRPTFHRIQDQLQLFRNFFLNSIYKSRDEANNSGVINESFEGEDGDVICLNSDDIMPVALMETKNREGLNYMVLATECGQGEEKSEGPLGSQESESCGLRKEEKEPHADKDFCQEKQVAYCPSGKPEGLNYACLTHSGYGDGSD
Chain of AP2-associated protein kinase 1 (Q2M2I8 whole entry): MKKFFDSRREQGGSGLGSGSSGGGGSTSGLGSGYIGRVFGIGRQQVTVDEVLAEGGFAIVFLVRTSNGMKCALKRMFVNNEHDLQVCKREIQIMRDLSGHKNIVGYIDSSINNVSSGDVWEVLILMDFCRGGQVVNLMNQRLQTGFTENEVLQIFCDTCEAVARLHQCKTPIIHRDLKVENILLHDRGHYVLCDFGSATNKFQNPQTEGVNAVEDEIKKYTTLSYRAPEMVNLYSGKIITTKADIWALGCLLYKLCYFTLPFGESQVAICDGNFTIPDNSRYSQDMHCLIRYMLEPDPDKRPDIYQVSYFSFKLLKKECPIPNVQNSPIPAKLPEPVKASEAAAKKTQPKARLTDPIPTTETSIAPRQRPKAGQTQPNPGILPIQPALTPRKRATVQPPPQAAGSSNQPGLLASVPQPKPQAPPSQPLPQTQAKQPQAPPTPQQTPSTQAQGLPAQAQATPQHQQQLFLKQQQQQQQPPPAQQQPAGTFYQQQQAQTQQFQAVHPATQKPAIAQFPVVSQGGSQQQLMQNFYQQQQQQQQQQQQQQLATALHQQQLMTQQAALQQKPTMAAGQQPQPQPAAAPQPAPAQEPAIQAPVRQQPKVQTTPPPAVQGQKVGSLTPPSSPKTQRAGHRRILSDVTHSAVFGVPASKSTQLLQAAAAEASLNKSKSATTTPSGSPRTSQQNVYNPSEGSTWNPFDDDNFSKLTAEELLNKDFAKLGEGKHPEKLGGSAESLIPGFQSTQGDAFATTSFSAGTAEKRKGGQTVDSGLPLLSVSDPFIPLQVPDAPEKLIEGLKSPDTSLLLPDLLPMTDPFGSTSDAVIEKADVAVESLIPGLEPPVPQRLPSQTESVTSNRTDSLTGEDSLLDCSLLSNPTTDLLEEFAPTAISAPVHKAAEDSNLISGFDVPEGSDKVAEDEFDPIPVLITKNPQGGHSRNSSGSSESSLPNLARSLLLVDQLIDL

COc1ccc(/C=C\c2cc(OC)c(OC)c(OC)c2)cc1NC(=O)CCC(=O)N[C@@H](CCCNC(=N)N)C(=O)O
Activity [1]: 0.12% | inhibition [2]: 50% | IC50 [3]: > 10 µM | Activity [4]: Active | IC50 [5]: > 10 µM | Activity [6]: Active | IC50 [7]: > 10 µM | Activity [8]: Active | IC50 [9]: > 10 µM | Activity [10]: Active | IC50 [11]: > 10 µM | IC50 [12]: > 10 µM | Activity [13]: Active | IC50 [14]: > 10 µM | Activity [15]: Non-Toxic | IC50 [16]: > 10 µM | Activity [17]: Active | Activity [18]: 0.083% | IC50 [19]: > 10 µM | viability at 0.5 µM [20]: 91.6% | Activity [21]: Active | Activity [22]: 5.32% | IC50 [23]: > 10 µM | IC50 [24]: > 10 µM | IC50 [25]: > 10 µM | IC50 [26]: > 10 µM | viability at 2.5 µM [27]: 89.3% | Activity [28]: 85.03% | Activity [29]: 4.55% | IC50 [30]: > 10 µM | AUC at 24 h [31]: 4300 ng·h/mL | IC50 [32]: 0.02 µM | Cmax [33]: 1330 ng/mL | inhibition [34]: 94% | IC50 [35]: > 10 µM | inhibition [36]: Active | Activity [37]: 6.04% | Activity [38]: Active | IC50 [39]: > 10 µM | inhibition [40]: Dose-Dependent Effect | IC50 [41]: > 10 µM

Source: ChEMBL document CHEMBL5375999, “Discovery of a Dual Tubulin and Neuropilin-1 (NRP1) Inhibitor with Potent In Vivo Anti-Tumor Activity via Pharmacophore-based Docking Screening, Structure Optimization, and Biological Evaluation” (J Med Chem, 2023)
